Reference: patent US10112925B2, “Methods for the preparation of charged crosslinkers” (IMMUNOGEN, INC., priority 2010, dated 2018)

Experiments:
[1] = Hygroscopicity of solid forms of compound (V), qualitative comparison; format: physicochemical; conditions: solid form; amorphous solid made according to US 20090274713 as comparator
Excerpt: In one embodiment, the invention is directed to new crystalline forms of the compound of formula (V), e.g., Crystalline Forms 1, 2a, 2b and 3 as described below.

[2] = Gravimetric vapour sorption (GVS) moisture sorption isotherm; format: physicochemical; conditions: 25° C.; for weight gain, adsorption profile (GVS): between 40% RH and 90% RH; for weight loss, desorption profile (GVS): between 90% RH and 0% RH
Description: Sorption isotherms were obtained using a SMS DVS Intrinsic moisture sorption analyser, controlled by DVS Intrinsic Control software v1.0.0.30. The sample temperature was maintained at 25° C. by the instrument controls. The humidity was controlled by mixing streams of dry and wet nitrogen, with a total flow rate of 200 ml/min. The relative humidity was measured by a calibrated Rotronic probe (dynamic range of 1.0-100% RH), located near the sample. The weight change, (mass relaxation) of the sample as a function of % RH was constantly monitored by the microbalance (accuracy ±0.005 mg).
Typically 10 mg of sample was placed in a tared mesh stainless steel basket under ambient conditions. The sample was loaded and unloaded at 40% RH and 25° C. (typical room conditions). A moisture sorption isotherm was performed as outlined below (2 scans giving 1 complete cycle). The standard isotherm was performed at 25° C. at 10% RH intervals over a 0-90% RH range. Data analysis was undertaken in Microsoft Excel using DVS Analysis Suite v6.0.0.7.

O=C(ON1C(=O)CCC1=O)C(CCSSc1ccccn1)S(=O)(=O)O (stereo not drawn) [Crystalline Form 1, N-succinimidyl 4-(2′-pyridyldithio)-2-sulfobutanoate]
hygroscopicity [1]: significantly less hygroscopic than the amorphous solid | weight gain, adsorption profile (GVS) [2]: 1.6% | weight loss, desorption profile (GVS) [2]: 1.9%

O=C(ON1C(=O)CCC1=O)C(CCSSc1ccccn1)S(=O)(=O)O (stereo not drawn) [Crystalline Form 2b, N-succinimidyl 4-(2′-pyridyldithio)-2-sulfobutanoate]
hygroscopicity [1]: significantly less hygroscopic than the amorphous solid

O=C(ON1C(=O)CCC1=O)C(CCSSc1ccccn1)S(=O)(=O)O (stereo not drawn) [Compound of formula (V), N-succinimidyl 4-(2′-pyridyldithio)-2-sulfobutanoate]
hygroscopicity [1]: highly hygroscopic

O=C(ON1C(=O)CCC1=O)C(CCSSc1ccccn1)S(=O)(=O)O (stereo not drawn) [Crystalline Form 3, N-succinimidyl 4-(2′-pyridyldithio)-2-sulfobutanoate]
hygroscopicity [1]: significantly less hygroscopic than the amorphous solid | weight gain, second adsorption profile (GVS) ([2]; between 0% RH and 40% RH): 0.4% | weight gain, adsorption profile (GVS) [2]: 25% | weight loss, desorption profile (GVS) [2]: 29.4%

O=C(ON1C(=O)CCC1=O)C(CCSSc1ccccn1)S(=O)(=O)O (stereo not drawn) [Crystalline Form 2a, N-succinimidyl 4-(2′-pyridyldithio)-2-sulfobutanoate]
hygroscopicity [1]: significantly less hygroscopic than the amorphous solid | weight gain, adsorption profile (GVS) [2]: 1.8% | weight loss, desorption profile (GVS) [2]: 2.4%
